Legend:
S2R+ cells = assay: mitoSOX mitochondrial superoxide staining; type: cell-based; settings: toxin alone
Procedure: A) Staining was performed with mitoSOX Red Mitochondrial Superoxide dye. B) Quantification of the fluorescence intensity of the mitoSOX probe in the indicated treatments (n=3). Data is presented as mean±s.e.m. P-values were determined by paired student's t-test, *P-value<0.05.
Whether SR3677 may protect against paraquat-induced phenotypes by interfering with paraquat's activity was also assessed. Paraquat gives rise to mitochondrial superoxide species that can be detected using mitoSOX, a fluorescent probe that is targeted to mitochondria, where it may be oxidized by superoxides. The oxidized mitoSOX species fluoresces upon encountering nucleic acid. The fluorescence intensity of Schneider's S2-R^+ cells, a cell line derived from dissociated embryos with a flat morphology amenable to imaging, was assessed following treatments with paraquat or paraquat and SR3677.

HEK293 GFP Parkin cells [1] = assay: High throughput small molecule screen for Parkin recruitment to mitochondria (high content imaging); type: cell-based; settings: for rank in the kinase inhibitor library screen (rank order by z-score): 4 μM, 16 h, then CCCP 2 h, rank out of 480, low rank = activator of Parkin recruitment, high rank = inhibitor
Procedure: 10 uL of 0.1 mg/mL Poly-D-Lys solution was added to 384-well plates for 5 minutes, followed by a PBS wash. Plates were dried for at least 2 hours. 50 μL of 600 000 HEK293 GFP Parkin cell/mL of DMEM was dispensed into each well. After 24 hours incubation to allow the cells to adhere, 200 nL of small molecules (or DMSO in columns 1, 2, 23 and 24) were pinned. Following a 16-hour incubation, 200 nL of 5 mM CCCP were added to all wells except columns 1 and 2, into which 200 nL of DMSO was added. Following 2-hour incubation, cells were fixed with 4% paraformaldehyde (PFA) and stained with 50 μL of 1 μg/mL DAPI solution for 15 minutes. After the final PBS wash, plates were ready for high content microscopy.
Images were acquired on IN Cell Analyzer 6000 (GE Healthcare), equipped with sCMOS camera (2048×2048), and 20x/0.45 NA Plan Fluor objective (Nikon) in open aperture mode using 1×1 binning. Image analysis was performed using Columbus Image Analysis System (PerkinElmer). Nuclei were initially detected in DAPI channel, followed by whole cell segmentation in GFP channel. Using PhenoLOGIC machine learning plug-in, cells were split into 2 sub-populations: cells with even GFP-Parkin distribution and cells where GFP-Parkin was localized to mitochondria. The percentage of cells with mitochondrial GFP-Parkin was determined per well. The molecules were then rank ordered based on z-score, which is calculated using the formula: […]
where x is the percentage of cells with mitochondrial GFP-Parkin for a specific small molecule, μ is the average percentage of cells with mitochondrial Parkin in positive control columns 23 and 24, where cells are treated with CCCP only.
These cell lines were screened across 2 biological replicates with compounds from the kinase inhibitor (n=480) and Prestwick (n=1120) collections. The 3-day screening protocol consisted of (1) seeding cells, (2) pinning small molecules at 4 μM concentration and (3) inducing mitophagy with CCCP, followed by processing of plates for high content imaging. Following image acquisition, DAPI staining was used to segment cells within each image. Supervised machine learning was used to classify cells into two classes: (1) cells with cytosolic Parkin distribution and (2) those with Parkin localized to mitochondria. […] Compounds which increased the proportion of class 2 cells across 2 biological replicates, compared to the CCCP-only treated cells (FIG. 10), as indicated by their z-score (FIG. 11), were considered hits.

HEK293 GFP Parkin cells [2] = assay: Parkin recruitment assay; type: cell-based
Procedure: HEK293 GFP Parkin cells were seeded into 12-well plates containing coverslips. Cells were treated with small molecules for 2 hours prior to mitophagy induction with 10 μM CCCP, unless indicated otherwise. Following fixation with 4% PFA, immunostaining was carried out using anti-ATP5A primary antibody and anti-mouse Alex Fluor 568.
To measure the percentage of cells with Parkin localized to mitochondria a 2 step process was employed: (1) whole cell segmentation based on GFP Parkin using CellProfiler software and (2) classification into Parkin distribution subpopulation using CellProfiler Analyst. The percentage of cells with Parkin localized to mitochondria was determined in each image. Images were taken at 20× magnification for this experiment, resulting in the classification of at least 300 cells in each treatment group per trial.

HEK293 GFP Parkin cells [3] = assay: Immunoblotting of mitochondrial protein degradation after CCCP; type: cell-based; settings: 10 μM CCCP
Procedure: (a) HEK293 GFP Parkin cells were treated with varying doses of SR3677 for 2 hours prior to induction of mitophagy with 10 μM CCCP for one hour. The percentage of cells with mitochondrial Parkin increased in a dose-dependent manner. […] Cell lysates were harvested, proteins were separated by SDS-PAGE and immunoblotting was performed with anti-Mfn2 and anti-actin antibodies. (c) Ponceau VDAC1 levels in each sample normalized to Ponceau staining. (d) Mfn2/actin levels in CCCP treated cells. (e) Densitometry analysis was performed to quantify Mfn2 and VDAC1 levels in each sample (n=4 independent experiments).
HEK293 GFP Parkin cells co-treated with 0.5 μM SR3677 or DMSO and 10 μM CCCP for the indicated time (hours). Cell lysates were separated by SDS-PAGE and immunoblotting was performed to assess turnover of IMM/matrix substrates (A) ATP5A, (B) UQCRC2 and (C) COXIV. Densitometry analysis was performed. Protein levels were normalized to Ponceau. Data is expressed as mean±s.e.m (n=6, 7 and 8 for a, b and c, respectively. 4) P-values were determined by paired student's t-test, *P<0.05.
Lysates were harvested using lysis buffer (0.1M Tris HCl, 0.01% SDS, pH 9) with 1× protease inhibitor cocktail (BioShop, PIC002.1). Lysates were then heated at 95° C. for 20 minutes with vortexing performed at 5-minute intervals. The BCA assay (Pierce, 23227) was performed to determine protein concentration, to standardize protein loading across samples to be compared. 12% SDS-PAGE gels were used to run samples to be analyzed for LC3 conversation and for Tom20 and 10% gels were run for all other samples. Transfer of proteins onto PVDF membrane (Immobilon, IPVH00010) was performed at 110V for 80 minutes or at 36V for 8 hours. Membranes were blocked with 5% skim milk in TBST (1×TBS, 0.1% Tween-20 [BioShop, 1M23298]) for 30 minutes prior to incubation in primary antibodies at a dilution of 1:1000 for all antibodies except anti-ROCK2 and anti-LC3, which were used at a dilution of 1:5000. Visualization of proteins was performed using ECL (BioRad, 11705062).
Densitometry was performed by normalizing bands corresponding to the protein of interest to a loading control such as actin using ImageLab 6.0 software (BioRad).

ROCK2 = ROCK2 (Homo sapiens, UniProt O75116); settings: biochemical and cell-based assays, previous studies; cited from earlier work
[4] = cited from earlier work
[5] = test system: differentiated SH-SY5Y cells; assay: Cell viability determination (ATP levels normalized to protein); type: cell-based; settings: 500 μM, 24 hours
Procedure: SH-SY5Y cells were differentiated according to previously established protocol consisting of sequential treatment with retinoic acid followed by brain-derived neurotrophic factor^10. Cells were then seeded into white 96-well plates with white bottom and allowed to adhere overnight. Varying doses of SR3677 were combined with 500 μM paraquat and administered for 24 hours. Controls treated with 0.5 μM SR3677, equivalent volume DMSO and paraquat alone were also included. Following 24-hour incubation, cell media was aspirated and THE lysis buffer (50 mM Tris-HCl, 100 mM NaCl, 0.1 mM EDTA) containing protease inhibitor cocktail was added to each well. Half of the lysate volume was removed and aliquoted into a separate 96-well plate. ATP levels were measured in the opaque plate using the ATP determination (ThermoFisher A22066) assay kit and protein concentrations were measured using the Pierce BCA (ThermoFisher #23225) assay kit. ATP levels were normalized to protein concentration and then by the ratio for cells treated with paraquat alone in a control well on each plate.

Canton(S) flies = type: in vivo, Drosophila; settings: 10 mM paraquat in food
Procedure: Fresh vials containing standard fly food supplemented with the indicated treatments were changed out every 2 days. The number of flies surviving each day was counted and log-rank tests were performed to determine statistical significance. […] The number of flies to climb beyond 9.5 cm every 10 seconds was assessed. The percentage of flies in each treatment to cross this line was determined. The climbing ability of each treatment was normalized to the control group treated with water only. […] Log-rank tests were performed to determine p-values for survival analyses (a, b, g), *P<0.05. P-values were determined by one-tailed paired student's t-test for all climbing assays (c-e, h), *P<0.05. Data is expressed as mean±s.e.m. All error bars represent s.e.m
Drosophila aged 7 days are fed food supplemented with either water (control), 1 mM SR3677, 10 mM paraquat or SR3677 in combination with paraquat. The survival of flies was recorded each day following administration of the treatments and climbing abilities were tested every 2 days by performing negative geotaxis assays.

Drosophila = type: in vivo; settings: Canton(S), 10 mM paraquat
Procedure: Fresh vials containing standard fly food supplemented with the indicated treatments were changed out every 2 days. The number of flies surviving each day was counted and log-rank tests were performed to determine statistical significance. 20 flies per treatment, n=5 (c) The climbing ability of flies treated as described in (a and bin) was assessed 4 days following initial administration of treatments. The number of flies to climb beyond 9.5 cm every 10 seconds was assessed. The percentage of flies in each treatment to cross this line was determined. The climbing ability of each treatment was normalized to the control group treated with water only. 20 flies per treatment, n=5. (d) The climbing ability of UAS-park^RNAi and ddc-GAL4>UAS-park^RNAi flies fed either paraquat or paraquat in combination with SR3677. 20 flies per treatment, n=7. (e) Proteins lysates from UAS-park^RNAi or tubulin>UAS-park^RNAi whole flies were separated by SDS-PAGE. Immunoblotting with anti-Parkin and anti-actin antibody was performed. (f) The climbing ability of TH-GAL flies fed either paraquat or paraquat in combination with SR3677. (g) Survival of heteroplasmic mt:Coll^T300l flies fed fly food supplemented with water or 2 mM SR3677 and wild-type Canton(S) flies (n=3 independent experiments). (h) The climbing ability of heteroplasmic mt:Coll^T300l flies fed either water or 2 mM SR3677 for 7 days. Log-rank tests were performed to determine p-values for survival analyses (a, b, g), *P<0.05. P-values were determined by one-tailed paired student's t-test for all climbing assays (c-e, h), *P<0.05. Data is expressed as mean±s.e.m. All error bars represent s.e.m
Male Canton(S) Drosophila were aged 7 days prior to feeding with standard fly food supplemented with water, 10 mM paraquat, 1 mM SR3677, or with combinations of these chemicals. Flies were placed into new vials containing fresh food supplemented with the treatments previously administered and 2 days later, climbing assays were performed. Flies were placed into plastic cylinder vials and tapped down, so all flies fell to the bottom. The number of flies to climb beyond 12.5 cm was counted every 10 s and values are represented as the percentage of total flies in each treatment group.

Sequence of ROCK2 (O75116 whole entry): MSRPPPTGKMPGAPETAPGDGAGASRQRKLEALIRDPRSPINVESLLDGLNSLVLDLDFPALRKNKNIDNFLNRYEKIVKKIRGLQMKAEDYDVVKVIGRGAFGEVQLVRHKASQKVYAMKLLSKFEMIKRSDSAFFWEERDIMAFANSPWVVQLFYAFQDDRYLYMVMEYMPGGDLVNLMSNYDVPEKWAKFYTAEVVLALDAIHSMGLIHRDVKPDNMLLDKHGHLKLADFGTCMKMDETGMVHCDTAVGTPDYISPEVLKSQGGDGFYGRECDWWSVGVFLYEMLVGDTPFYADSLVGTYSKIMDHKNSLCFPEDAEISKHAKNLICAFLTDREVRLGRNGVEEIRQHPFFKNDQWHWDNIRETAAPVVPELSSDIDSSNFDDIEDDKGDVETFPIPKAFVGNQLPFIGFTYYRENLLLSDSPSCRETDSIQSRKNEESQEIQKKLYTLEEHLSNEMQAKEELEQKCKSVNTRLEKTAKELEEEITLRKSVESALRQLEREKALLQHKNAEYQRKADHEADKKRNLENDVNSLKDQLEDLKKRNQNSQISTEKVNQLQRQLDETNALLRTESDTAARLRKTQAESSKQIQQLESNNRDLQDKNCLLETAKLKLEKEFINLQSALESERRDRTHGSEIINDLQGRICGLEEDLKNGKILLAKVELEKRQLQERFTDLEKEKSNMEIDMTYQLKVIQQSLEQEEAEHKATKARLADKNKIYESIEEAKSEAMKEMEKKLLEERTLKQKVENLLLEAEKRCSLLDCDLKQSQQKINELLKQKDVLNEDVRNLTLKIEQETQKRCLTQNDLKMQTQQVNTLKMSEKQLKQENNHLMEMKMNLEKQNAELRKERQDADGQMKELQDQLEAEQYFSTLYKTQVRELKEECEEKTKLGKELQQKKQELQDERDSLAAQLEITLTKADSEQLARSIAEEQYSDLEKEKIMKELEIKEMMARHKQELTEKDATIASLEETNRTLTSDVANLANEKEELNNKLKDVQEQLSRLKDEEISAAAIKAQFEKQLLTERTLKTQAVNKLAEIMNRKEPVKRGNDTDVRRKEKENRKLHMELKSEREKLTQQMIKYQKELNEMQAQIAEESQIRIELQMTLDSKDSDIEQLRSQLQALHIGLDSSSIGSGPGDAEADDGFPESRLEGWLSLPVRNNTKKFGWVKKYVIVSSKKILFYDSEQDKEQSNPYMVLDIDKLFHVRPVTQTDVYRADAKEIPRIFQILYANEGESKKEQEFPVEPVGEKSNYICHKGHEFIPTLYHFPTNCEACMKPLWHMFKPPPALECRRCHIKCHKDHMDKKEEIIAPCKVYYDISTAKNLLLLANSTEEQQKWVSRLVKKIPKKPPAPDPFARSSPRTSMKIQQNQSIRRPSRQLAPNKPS

CC(C)(C)OO [luperox]
fluorescence intensity of mitoSOX (S2R+ cells): increases the fluorescence intensity of mitoSOX

C[C@@H](N)c1ccc(C(=O)Nc2ccnc3[nH]ccc23)cc1 [Y39983]
rank in the kinase inhibitor library screen (rank order by z-score) (HEK293 GFP Parkin cells [1]): 5/480 | Parkin recruitment on re-test (HEK293 GFP Parkin cells [2]; 10 μM, 2-hour treatment, CCCP): recapitulated the effects observed following overnight incubation | Parkin distribution in the absence of CCCP (HEK293 GFP Parkin cells [2]; compound alone): diffuse | concentration administered to enhance Mfn2 degradation (HEK293 GFP Parkin cells [3]): 10 µM | Mfn2 degradation following CCCP (HEK293 GFP Parkin cells [3]; 2 h pre-treatment, Y39983 10 μM, SR3677 0.5 μM): Increased degradation of Mfn2 | ROCK2 inhibition (ROCK2): sufficiently inhibit both ROCK1 and ROCK2 | cell permeability [4]: poor cell permeability

O=C(Nc1ccncc1)Nc1c(Cl)cc(Cl)cc1Cl [rho kinase inhibitor II]
class in the screen (FIG. 1b) (HEK293 GFP Parkin cells [1]; ROCK inhibitors, 4 μM plus CCCP): Enhancers of Parkin recruitment

NC(=O)c1ccc2nc(-c3ccc(Oc4ccc(Cl)cc4)cc3)[nH]c2c1 [Chk2 inhibitor II]
rank in the kinase inhibitor library screen (rank order by z-score) (HEK293 GFP Parkin cells [1]): 402/480

CN[C@@H]1C[C@H]2O[C@@](C)([C@@H]1OC)n1c3ccccc3c3c4c(c5c6ccccc6n2c5c31)C(=O)NC4 [Staurosporine]
position among hits of the screen (HEK293 GFP Parkin cells [1]; known activator of Parkin-mediated mitophagy): ≤ 0.3%

NC(=O)Nc1cc(-c2cccc(F)c2)sc1C(=O)N[C@H]1CCCNC1 [AZD-7762]
rank in the kinase inhibitor library screen (rank order by z-score) (HEK293 GFP Parkin cells [1]): 413/480

O=c1[nH]c2ccc(Cl)cc2c(N[C@@H]2CN3CCC2CC3)c1-c1nc2ccccc2[nH]1 [CHIR-124]
rank in the kinase inhibitor library screen (rank order by z-score) (HEK293 GFP Parkin cells [1]): 403/480

C[n+]1ccc(-c2cc[n+](C)cc2)cc1 [Paraquat]
cell viability, paraquat alone [5]: reduced the viability of cells | survival of flies, paraquat alone (Canton(S) flies): reduced | climbing ability, paraquat alone (Drosophila): impairs the climbing ability of flies over time | fluorescence intensity of mitoSOX (S2R+ cells): increases the fluorescence intensity of mitoSOX

Cc1cnc(Nc2ccc(OCCN3CCCC3)cc2)nc1Nc1cccc(S(=O)(=O)NC(C)(C)C)c1 [TG-101348]
rank in the kinase inhibitor library screen (rank order by z-score) (HEK293 GFP Parkin cells [1]): 418/480

— US20220074923A1, “METHODS OF IDENTIFYING PARKIN-MEDIATED MITOPHAGY ACTIVATING AGENTS” (THE GOVERNING COUNCIL OF THE UNIVERSITY OF TORONTO, priority 2018, published 2022)
